According to patent publication US12313632B2, “Tepoxalin targeting of ABCB1 overexpressing cancers” (THE BROAD INSTITUTE, INC., priority 2018, dated 2025):
Like-named read-outs stand apart in the source and are kept apart here.

What was measured:
[1] = test system: barcode-tagged neoplastic cell line populations sorted by ABCB1 expression; assay: PRISM multiplexed cellular viability screen, cell killing plotted against ABCB1 expression; details: for Phenocopy of tepoxalin activity in PRISM: tested at the same dose
Procedure: PRISM cell line barcoding, pooling, and screening was performed as previously described with several improvements to the original method (5). First, the lentiviral vector was modified to encode the unique barcode identifier at the end of the puromycin resistance gene. This enables barcodes to be detected using a variant of the mRNA capture and Luminex detection method developed for the L1000 gene expression assay (6). Second, a set of ten inert barcodes were spiked-in to each well of each plate after cell lysis to control for variation in PCR amplification as detailed below.
Cell viability was calculated as the ratio of nMFI to the median of the nMFI from the DMSO-treated negative controls for each cell line on each plate. Batch effects produced from variable detection and assay conditions were then removed using ComBat (8). The final viability values were calculated as the median of the batch-corrected cell viabilities from biological replicates for each cell line, compound and dose.
Measures of dose response were obtained by fitting 3-parameter logistic curves to viability values for each compound and cell line using the R package ‘drc’. Following the practice of Smirnov and Safikhani (9), viability was truncated at 1.0 and fit as a function of drug concentration according to:
High-throughput “next gen” sequencing performed upon arrayed cell populations allowed for well-by-well tracking of cell viability over time, in the presence and absence of library compounds, via barcode enumeration and deconvolution of treated and control cell line populations. Using this approach, cell viability dose-response curves were generated for each compound of the drug repurposing library, across all targeted cell lines present in the barcode-tagged neoplastic cell line “PRISM” populations.
By sorting the “PRISM” population cell lines by their respective relative levels of ABCB1 expression (as assessed by RNAseq), the cell killing profile of each drug repurposing library compound tested could be plotted against relative levels of ABCB1 expression, thereby obtaining a cell killing profile that served as a proxy for dose-response of the library compound across progressively increasing levels of ABCB1 expression.

LS1034 cells [2] = assay: CellTiter-Glo cellular viability assay, killing of LS1034 cells; type: cell-based, human; details: for IC50: Homo sapiens, LS-1034
Procedure: (§1) Cell viability was assayed using a modified manufacturer's protocol for CellTiter-Glo® (Promega #G7573). Cells were seeded at a density of 2000 cells per well in a 96 well black, clear bottom plate (Corning #89091-012) in 100 uL total media per well. The following day different concentrations of compounds at various doses were printed in triplicate in a random well format using the Tecan D300e Digital Dispenser. After 120H, 60 μL of a 1:3 solution of CellTiterGlo reagent in 1×PBS (Corning #01018002) was added per well and allowed to incubate at RT for 10 mins. Luminescence was measured with an integration time of 0.1 s using Envision Microplates Reader (PERKIN ELMER #2105-0010). Biological replicates were averaged and normalized to vehicle control. Dose curves were generated using Graphpad Prism.

REC1 cells = assay: Expanded cell line viability comparison, killing of REC1 cells; type: cell-based, human; details: REC1 versus LS1034
Procedure: as §1

[3] = test system: LS1034 cells administered sg ABCB1-2; assay: Viability of LS1034 cells given control sgRNA (sg GFP) or ABCB1 knockdown sgRNA (sg ABCB1-2); type: cell-based, human; details: sg ABCB1-2 compared to control sgRNA sg GFP
Procedure: A mixture of 3E6 cells, virus, and media with 4 μg/mL polybrene (Millipore) at a total volume of 2 mL was plated per well of a 12 well plate. Cells were centrifuged at 2000 RPM for 2 hours at 30° C. After removal from incubator, 2 mL of fresh media was added to each well and cells were allowed to incubate at 37° C. overnight. The following day cells were selected for with puromycin for 3-10 days, or until the non-infected control cell were completely non-viable.
as §1, with “Prism. […]” for “Prism.”

Kuramochi-ABCB1 cells = assay: Killing of native Kuramochi cells versus Kuramochi cells overexpressing ABCB1 (Kuramochi-ABCB1); type: cell-based, human; details: for Change of compound-mediated killing with overexpressed ABCB1: Kuramochi-ABCB1 versus native Kuramochi cells
Procedure: Cell viability was assayed using a modified manufacturer's protocol for CellTiter-Glo® (Promega #G7573). […] The following day different concentrations of compounds at various doses were printed in triplicate in a random well format using the Tecan D300e Digital Dispenser. […] Biological replicates were averaged and normalized to vehicle control. Dose curves were generated using Graphpad Prism.
Next, the consequence of ectopic ABCB1 overexpression in cells resistant to tepoxalin was evaluated.

LS1034 cells [4] = test system: LS1034 cells
Procedure: (§2) Compound was incubated in naïve cell media (no cell control, or NCC) or in the presence of cells at 1 million cells/mL. The incubation was carried out in a 37° C. with 5% CO2 cell incubator with gentle plate shaking for 3 hours. Following the incubation, the NCC samples were placed on the bench until final analysis. Cell samples were centrifuged at 500×g for 5 minutes. The supernatant was removed, and the cells were washed twice with cold PBS. Cells were again centrifuged at 500×g for 5 minutes, the supernatant was removed/discarded, and cells were resuspended in 130 pL water (Honeywell, catalog #33015-1L). The entire volume was then transferred into a Covaris microTUBE plate (Covaris, catalog #220078) and sonicated on a Covaris LE220 focused-ultrasonicator. Samples were transferred to a 96wp and centrifuged at 3000×g for 15 min at 20° C. The supernatant was transferred to a new 96wp. For both the NCC and cell samples, 5 pL was transferred to a 96wp. To each sample was added 45 pL cell media, 50 pL water, and 50 pL acetonitrile containing internal standard. […]
(§3) Samples were analyzed on a UPLC-MS/MS system consisting of a Waters Acquity I-Class FTN and AB Sciex 4500 Triple Quad mass spectrometer with compounds being detected by positive mode MRM detection. […] Sample concentrations were determined using a standard curve and dilution quality control samples prepared in a surrogate matrix. […]

[5] = rat model, compared with naproxen; cited from earlier work
MDR1 [6] = molecular target: T1, MDR1 (Homo sapiens, UniProt P08183); assay: cell-based
MDR1 [7] = molecular target: T1, MDR1; assay: cell-based; remark: listed apart in the source
[8] = published pharmacokinetic studies; cited from earlier work
cyclooygenase = details: in vitro; cited from earlier work
LS1034 cells [9] = assay: Compound cell permeability assay (LC-MS); details: 3 hour incubation, 20 μM, with or without ABCB1 knockout or elacridar
Procedure: as §2, §3

MDR1 [10] = molecular target: T1, MDR1; assay: P-Glycoprotein transporter cell based antagonism assay (calcein AM assay); details: read-out: IC50 in calcein AM assay; relies upon cell-permeability of compounds
[11] = PRISM population, ABCB1 expression by RNAseq
[12] = read-out: IC50 value (absolute) in killing LS1034 cells

T1 sequence (P08183 whole entry): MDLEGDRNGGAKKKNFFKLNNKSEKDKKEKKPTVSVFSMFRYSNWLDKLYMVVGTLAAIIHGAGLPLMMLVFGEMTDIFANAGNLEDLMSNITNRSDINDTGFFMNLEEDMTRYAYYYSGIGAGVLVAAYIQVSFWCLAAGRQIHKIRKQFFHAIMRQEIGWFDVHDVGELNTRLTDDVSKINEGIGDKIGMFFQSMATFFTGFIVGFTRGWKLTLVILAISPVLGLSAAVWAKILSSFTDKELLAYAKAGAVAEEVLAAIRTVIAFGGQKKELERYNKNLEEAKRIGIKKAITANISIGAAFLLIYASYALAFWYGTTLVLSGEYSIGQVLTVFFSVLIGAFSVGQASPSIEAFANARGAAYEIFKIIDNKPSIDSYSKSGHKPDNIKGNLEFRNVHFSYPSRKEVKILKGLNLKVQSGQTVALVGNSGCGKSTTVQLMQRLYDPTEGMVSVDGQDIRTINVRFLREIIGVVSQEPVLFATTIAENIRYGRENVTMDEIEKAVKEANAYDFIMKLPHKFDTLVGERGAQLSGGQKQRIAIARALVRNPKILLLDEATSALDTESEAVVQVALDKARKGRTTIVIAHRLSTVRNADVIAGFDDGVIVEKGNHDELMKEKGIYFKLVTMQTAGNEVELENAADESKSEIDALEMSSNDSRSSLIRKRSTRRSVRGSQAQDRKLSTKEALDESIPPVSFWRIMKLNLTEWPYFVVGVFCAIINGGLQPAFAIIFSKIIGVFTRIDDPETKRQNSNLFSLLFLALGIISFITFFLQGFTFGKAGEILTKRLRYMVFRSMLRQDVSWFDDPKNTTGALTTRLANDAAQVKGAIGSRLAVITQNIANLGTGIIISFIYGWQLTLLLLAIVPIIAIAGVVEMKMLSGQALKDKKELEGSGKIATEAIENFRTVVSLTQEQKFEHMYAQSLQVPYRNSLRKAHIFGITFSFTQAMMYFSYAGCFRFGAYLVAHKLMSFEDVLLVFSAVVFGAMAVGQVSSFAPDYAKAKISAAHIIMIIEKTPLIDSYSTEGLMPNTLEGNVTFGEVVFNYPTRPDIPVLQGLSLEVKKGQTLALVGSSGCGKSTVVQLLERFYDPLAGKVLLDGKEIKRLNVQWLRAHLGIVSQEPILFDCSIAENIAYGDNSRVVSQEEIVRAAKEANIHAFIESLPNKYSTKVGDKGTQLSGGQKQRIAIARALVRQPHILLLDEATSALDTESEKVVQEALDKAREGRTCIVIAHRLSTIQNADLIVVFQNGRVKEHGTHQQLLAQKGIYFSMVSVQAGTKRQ

CC(=O)O[C@@]12CO[C@@H]1C[C@H](O)[C@@]1(C)C(=O)[C@H](O)C3=C(C)[C@@H](OC(=O)[C@H](O)[C@@H](NC(=O)OC(C)(C)C)c4ccccc4)C[C@@](O)([C@@H](OC(=O)c4ccccc4)[C@H]21)C3(C)C [docetaxel, Docetaxel]
Cell killing profile against relative levels of ABCB1 expression [1, 11]: robust killing of cells that expressed low levels of ABCB1

CC[C@]1(O)C[C@@H]2C[N@@](CCc3c([nH]c4ccccc34)[C@@](C(=O)OC)(c3cc4c(cc3OC)N(C=O)[C@H]3[C@@](O)(C(=O)OC)[C@H](OC(C)=O)[C@]5(CC)C=CCN6CC[C@]43[C@@H]65)C2)C1 [vincristine, Vincristine]
Cell killing profile against relative levels of ABCB1 expression [1, 11]: robust killing of cells that expressed low levels of ABCB1

O[C@@H](COc1cccc2ncccc12)CN1CCN([C@@H]2c3ccccc3[C@@H]3[C@H](c4ccccc42)C3(F)F)CC1 [zosuquidar]
IC50 (LS1034 cells [2]; [12]): > 10 µM

Romidepsin
Cell killing profile against relative levels of ABCB1 expression [1]: robust killing of cells that expressed low levels of ABCB1

C/C=C/C[C@@H](C)C(=O)[C@H]1C(=O)N[C@@H](C(C)C)C(=O)N(C)CC(=O)N(C)[C@@H](CC(C)C)C(=O)N[C@@H](C(C)C)C(=O)N(C)[C@@H](CC(C)C)C(=O)N[C@@H](C)C(=O)N[C@H](C)C(=O)N(C)[C@@H](CC(C)C)C(=O)N(C)[C@@H](CC(C)C)C(=O)N(C)[C@@H](C(C)C)C(=O)N1C [valspodar]
IC50 (LS1034 cells [2]; [12]): > 10 µM

Vinorelbine
Cell killing profile against relative levels of ABCB1 expression [1, 11]: robust killing of cells that expressed low levels of ABCB1

COc1cccc2c1C(=O)c1c(O)c3c(c(O)c1C2=O)C[C@@](O)(C(C)=O)C[C@@H]3O[C@H]1C[C@H](N)[C@H](O)[C@H](C)O1 [daunorubicin, Daunorubicin]
Cell killing profile against relative levels of ABCB1 expression [1]: robust killing of cells that expressed low levels of ABCB1

COc1cc2c(cc1OC)CN(CCc1ccc(NC(=O)c3cc(OC)c(OC)cc3NC(=O)c3cnc4ccccc4c3)cc1)CC2 [tariquidar]
IC50 (LS1034 cells [2]; [12]): > 10 µM
Phenocopy of tepoxalin activity in PRISM [1]: did not phenocopy tepoxalin

CC(=O)[C@]1(O)Cc2c(O)c3c(c(O)c2[C@@H](O[C@H]2C[C@H](N)[C@H](O)[C@H](C)O2)C1)C(=O)c1ccccc1C3=O [idarubicin, Idarubicin]
Cell killing profile against relative levels of ABCB1 expression [1, 11]: robust killing of cells that expressed low levels of ABCB1

COc1ccc(-n2nc(CCC(=O)N(C)O)cc2-c2ccc(Cl)cc2)cc1 [tepoxalin]
IC50 (LS1034 cells [2]; [12]): 7.8 µM
Effect of elacridar co-treatment on killing of LS1034 cells (LS1034 cells [2]; LS1034, 120H, co-treatment with the MDR1 inhibitor elacridar across dose ranges): rescued
Killing of REC1 cells compared with LS1034 cells (IC50 comparison) (REC1 cells): more robust killing of REC1 cells than LS1034 cells
Effect of sg ABCB1-2 on compound-mediated killing of LS1034 cells [3]: effectively blocked
Change of compound-mediated killing with overexpressed ABCB1 (Kuramochi-ABCB1 cells; 144 hours): enhanced
Dose-response cell killing curves in combination with 2 μM elacridar, across ABCB1 expression/overexpression (Kuramochi-ABCB1 cells; combination with 2 μM elacridar, Kuramochi versus Kuramochi-ABCB1, 144 hours): impervious (did not shift)
Cell permeability (LS1034 cells [4]): readily cell permeable
Gastric ulcers at an effective dose [5]: fewer gastric ulcers in a rat model than naproxen
IC50 (MDR1 [6]): 12 µM
IC50 (MDR1 [7]): 32 µM
Cell killing profile against relative levels of ABCB1 expression [1, 11]: progressively enhanced killing of cell lines in positive correlation with increasing levels of ABCB1

O=C(C(c1ccccc1)c1ccccc1)N1CCN(CC(O)COc2cccc3ncccc23)CC1 (stereo not drawn) [dofequidar]
IC50 (LS1034 cells [2]; [12]): > 10 µM

CC(=O)O[C@H]1C(=O)[C@@]2(C)[C@H]([C@H](OC(=O)c3ccccc3)[C@]3(O)C[C@H](OC(=O)[C@H](O)[C@@H](NC(=O)c4ccccc4)c4ccccc4)C(C)=C1C3(C)C)[C@]1(OC(C)=O)CO[C@@H]1C[C@@H]2O [paclitaxel, Paclitaxel]
IC50 (LS1034 cells [2]; read-out: IC50 in killing LS1034 cells): 0.165 µM
Killing of REC1 cells compared with LS1034 cells (IC50 comparison) (REC1 cells): more robust killing of REC1 cells than LS1034 cells
Change of compound-mediated killing with overexpressed ABCB1 (Kuramochi-ABCB1 cells; 144 hours): dampened

CC(C)C[C@H](NC(=O)[C@H](CCc1ccccc1)NC(=O)CN1CCOCC1)C(=O)N[C@@H](Cc1ccccc1)C(=O)N[C@@H](CC(C)C)C(=O)[C@@]1(C)CO1 [carfilzomib, Carfilzomib]
Cell killing profile against relative levels of ABCB1 expression [1, 11]: robust killing of cells that expressed low levels of ABCB1

C/C(=C\c1csc(C)n1)[C@@H]1C[C@@H]2O[C@]2(C)CCC[C@H](C)[C@H](O)[C@@H](C)C(=O)C(C)(C)[C@@H](O)CC(=O)N1 [ixabepilone, Ixabepilone]
Cell killing profile against relative levels of ABCB1 expression [1]: robust killing of cells that expressed low levels of ABCB1

COc1cccc2c1C(=O)c1c(O)c3c(c(O)c1C2=O)C[C@@](O)(C(=O)CO)C[C@@H]3O[C@H]1C[C@H](N)[C@H](O)[C@H](C)O1 [doxorubicin, Doxorubicin]
Change of compound-mediated killing with overexpressed ABCB1 (Kuramochi-ABCB1 cells; 144 hours): dampened
Cell killing profile against relative levels of ABCB1 expression [1, 11]: robust killing of cells that expressed low levels of ABCB1

COc1cccc2c1C(=O)c1c(O)c3c(c(O)c1C2=O)C[C@@](O)(C(=O)CO)C[C@@H]3O[C@H]1C[C@H](N)[C@@H](O)[C@H](C)O1 [epirubicin, Epirubicin]
Cell killing profile against relative levels of ABCB1 expression [1, 11]: robust killing of cells that expressed low levels of ABCB1

COc1cc2c(cc1OC)CN(CCc1ccc(NC(=O)c3cccc4c(=O)c5cccc(OC)c5[nH]c34)cc1)CC2 [elacridar]
IC50 (LS1034 cells [2]; [12]): 1.9 µM
Killing of REC1 cells compared with LS1034 cells (IC50 comparison) (REC1 cells): comparable IC50 values for REC1 killing and LS1034 killing
Cell killing by the compound alone in native and ABCB1-overexpressing Kuramochi cells (Kuramochi-ABCB1 cells; 144 hours): only modest cell killing
Phenocopy of tepoxalin activity in PRISM [1]: did not phenocopy tepoxalin

COc1ccc(-n2nc(CCC(=O)O)cc2-c2ccc(Cl)cc2)cc1 [RWJ20142]
Viability of treated LS1034 cells (LS1034 cells [2]; LS1034 cells): no decrease in viability
Maximal plasma concentration relative to parent compound [8]: higher maximal plasma concentration than the parent compound
Activity against cyclooxygenase (cyclooygenase): active
Cell permeability (LS1034 cells [9]): cell impermeability
IC50 (MDR1 [10]): > 100 µM
